Common to all, as to type: physicochemical
Series [1] in a line: Speciation plot (FIG. 5) calculation of solution pH from experimentally determined pKas. Particulars: according to the speciation plot calculation. The source says:
A pharmaceutically acceptable salt of a drug substance is one that is chemically stable and can be used in a pharmaceutical composition. Unlike simple aromatic hydrocarbons, thymodepressin is a dipeptide with multi-functional groups. The dipeptide D-isoglutamyl-D-tryptophan has an alpha amine, two carboxylic acids and an indole nitrogen within the same molecule. An ideal salt should be one that has a solution pH close to about 7 and in the low basic pH range. Through investigations in our laboratory, in the search for a novel salt to address the shortcomings of the disodium salt of D-isoglutamyl-D-tryptophan, the speciation plot (FIG. 5) was used to determine salts with ideal solution pH and solubility that are suitable for pharmaceutical formulations. FIG. 5 is a speciation plot of H-D-iGlu-D-Trp-OH from pH 0 to 12 using experimentally determined pKas. In FIG. 5, LH2=H-D-iGlu-D-Trp-OH, LH=mono carboxylic acid salt, L=dicarboxylic acid salt, and LH3=acid addition salt of H-D-iGlu-D-Trp-OH. The X axis provides the pH of the solution, whereas the Y axis reports the amount of the species present at a particular pH. From our practical experience, we use 6 ml of water per gm of H-D-iGlu-D-Trp-OH for isolation purposes, which corresponds to a concentration of 0.5 M solution.
According to the speciation plot calculation shown in FIG. 5, the diacid form has a pH of about 2.7 to about 3 in solution. The metal salt of formula I wherein M is potassium or lithium; the divalent salt of formula II wherein B is calcium or magnesium has a solution pH close to about 7.
We have applied the speciation plot (FIG. 5) to compute the pH range of the salt forms of the dipeptide H-D-iGlu-D-Trp-OH. […] This is particular ideal for liquid formulation, sublingual tablets, nasal drops and sprays.

Series [2] in a line: Percent crystallinity by X-ray powder diffraction. Particulars: XRPD, D8 system with 2D detector; not absolute values. Here is the method:
The percent crystallinity is commonly measured as a ratio between the diffraction portion from the crystalline part of the sample, Ic, and the total diffraction from the same sample, IC+B. The values of IC can be obtained after an appropriate subtraction of the scattering portion from the background, IB.
For such kind of analyses, the diffraction is measured as total area under the profile of: • the whole pattern as it is collected (one may correct for the air scattering) −ITOTAL* • the peaks only (IC) after subtraction of the background (correction for the air scattering), • the background only with correction for air scattering −(IB).
However, in this study, due to the technical problems with the D5000 point-detector diffraction system, all the samples were analyzed on a D8 system, equipped with an area, 2D detector, and the above-mentioned approach could not be applied. Therefore, another technique has been developed for measuring the crystallinity of samples analyzed on such system. Only a narrow part of the 2D diffraction image is chosen with a single peak at the centre and a neighbour area where the background will be measured.
All samples were measured for calculation of their crystallinity using a narrow range of 21°-25° with a strongest reflection at […]. The background was subtracted as linear, and an empirical correlation coefficient of 2.5 was applied.

Series [3] is described as follows: Stability of the solid salt. The source says:
It is extremely hygroscopic and very difficult to weigh for formulation research. In solution, as per the speciation plot (FIG. 5), the pH is above 9.0 and the solution pH must be adjusted to about 7.0 to about 7.4 in a formulation preparation.

A short description of series [4]: Hygroscopicity of the freeze-dried solid in air.

As for `NC(=O)[C@H](N)CCC(=O)N[C@H](Cc1c[nH]c2ccccc12)C(=O)[O-].[K+]` [potassium salt of formula I, D-isoglutamyl-D-tryptophan potassium salt (1:1)], the pH in solution result in series [1] was “about 7”.
On to “Calcium Salt of D-isoglutamyl-D-tryptophan (1:2) [Example 8]”, for which the percent crystallinity in series [2] is recorded as 18-20%.
For “D-isoglutamyl-D-tryptophan calcium salt (2:1) [calcium salt of formula II]”, the percent crystallinity in series [2] was ≤ 67%. The pH in solution result in series [1] was “about 7”.
Take “D-isoglutamyl-D-tryptophan magnesium salt (2:1) [magnesium salt of formula II]”: in series [1], the pH in solution entry is reported as “about 7”.
Consider “disodium salt of D-isoglutamyl-D-tryptophan”, for which, in series [1], the pH in solution entry was “above 9.0”. The “stability as a solid” value in series [3] is “less stable chemical entity as a solid”. Further, in series [4], the hygroscopicity result is recorded as “extremely hygroscopic turning into a gel in a matter of minutes in air”.
